The source of these data is ChEMBL document CHEMBL1240467, “Synthesis and antibacterial activities of 6-O-methylerythromycin A 9-O-(3-aryl-2-propenyl) oxime ketolide, 2,3-enol ether, and alkylide analogues” (2010).

For orientation: MIC means the lowest concentration found to suppress growth. A high value points to weaker potency.

Values after ≈ are worked out from the molar mass of the structure shown. Where only a bound is given, the exact number is not on record here.

Holding throughout (type): functional
Experiment [1] concerns Streptococcus pneumoniae. As to the kind of experiment: Antibacterial activity against erythromycin-resistant Streptococcus pneumoniae PU-11 expressing erm and mef gene by broth microdilution method. Background: Dilution methods test growth across graded concentrations, often in twofold steps.
Experiment [2] relates to Streptococcus pneumoniae. As to the kind of experiment: Antibacterial activity against erythromycin-susceptible Streptococcus pneumoniae ATCC 49619 by broth microdilution method.
For experiment [3], the system named is Staphylococcus aureus. As to the kind of experiment: Antibacterial activity against erythromycin-susceptible Staphylococcus aureus ATCC 29213 by broth microdilution method.
In experiment [4] the test system is Staphylococcus aureus. As to the kind of experiment: Antibacterial activity against erythromycin-resistant Staphylococcus aureus PU-19 expressing erm(A) gene by broth microdilution method.
Experiment [5] concerns Staphylococcus aureus. As to the kind of experiment: Antibacterial activity against erythromycin-resistant Staphylococcus aureus PU-32 expressing erm(A) gene by broth microdilution method.
In experiment [6] the test system is Streptococcus pneumoniae. In words: Antibacterial activity against erythromycin-resistant Streptococcus pneumoniae PU-27 expressing erm gene by broth microdilution method.
Experiment [7] concerns Streptococcus pneumoniae. As to the kind of experiment: Antibacterial activity against erythromycin-resistant Streptococcus pneumoniae PU-09 expressing mef gene by broth microdilution method.

For `CC[C@H]1OC(=O)[C@H](C)C(=O)[C@H](C)[C@@H](O[C@H]2O[C@H](C)C[C@H](N(C)C)[C@H]2O)[C@](C)(OC)C[C@@H](C)/C(=N\OC/C=C/c2cnc3ccccc3c2)[C@H](C)[C@@H]2OC(=O)O[C@]12C`, the MIC in experiment [1] was 32 µg/mL (≈ 40.2 µM); in experiment [2] it was no more than 0.016 µg/mL; in experiment [3], 0.032 µg/mL (≈ 0.0402 µM); in experiment [4] it was 64 µg/mL (≈ 80.4 µM); in experiment [5], 0.064 µg/mL (≈ 0.0804 µM).

As to `CC[C@H]1OC(=O)[C@H](C)C(O/C=C\Cc2cncc3ccccc23)[C@H](C)[C@@H](O[C@H]2O[C@H](C)C[C@H](N(C)C)[C@H]2O)[C@](C)(OC)C[C@@H](C)/C(=N\OC/C=C/c2cncc3ccccc23)[C@H](C)[C@@H](O)[C@]1(C)O` (some centres not stated), the results for the minimal inhibitory concentration (MIC) in experiment [2] and in experiment [3] were 16 µg/mL (≈ 17 µM) and 128 µg/mL (≈ 136 µM), respectively.

In the case of `CC[C@H]1OC(=O)[C@H](C)[C@@H](O[C@H]2C[C@@](C)(OC)[C@@H](O)[C@H](C)O2)[C@H](C)[C@@H](O[C@@H]2O[C@H](C)C[C@H](N(C)C)[C@H]2O)[C@](C)(OC)C[C@@H](C)C(=O)[C@H](C)[C@@H](O)[C@]1(C)O` [CLARITHROMYCIN], the minimal inhibitory concentration (MIC) in experiment [1] is 128 µg/mL (≈ 171 µM); in experiment [6], 16 µg/mL (≈ 21.4 µM); in experiment [2] it was 0.032 µg/mL (≈ 0.0428 µM); in experiment [3], 0.125 µg/mL (≈ 0.167 µM); in experiment [4], greater than 256 µg/mL; in experiment [7], 4 µg/mL (≈ 5.35 µM). The molecule also returned a minimal inhibitory concentration (MIC) in experiment [5] of 64 µg/mL (≈ 85.6 µM).

On to `CC[C@H]1OC(=O)[C@H](C)[C@@H](O[C@H]2C[C@@](C)(OC)[C@@H](O)[C@H](C)O2)[C@H](C)[C@@H](O[C@@H]2O[C@H](C)C[C@H](N(C)C)[C@H]2O)[C@](C)(O)C[C@@H](C)CN(C)[C@H](C)[C@@H](O)[C@]1(C)O` [AZITHROMYCIN], for which the MIC was 128 µg/mL (≈ 171 µM) in experiment [1]; 0.064 µg/mL (≈ 0.0854 µM) in experiment [2]; 0.5 µg/mL (≈ 0.668 µM) in experiment [3]; greater than 256 µg/mL in experiment [4]; 64 µg/mL (≈ 85.4 µM) in experiment [5].

As to `CC[C@H]1OC(=O)[C@H](C)C(=O)[C@H](C)[C@@H](O[C@H]2O[C@H](C)C[C@H](N(C)C)[C@H]2O)[C@](C)(OC)C[C@@H](C)/C(=N\OC/C=C/c2cccnc2)[C@H](C)[C@@H]2OC(=O)O[C@]12C`, the MIC was 128 µg/mL (≈ 172 µM) in experiment [1]; 0.032 µg/mL (≈ 0.0429 µM) in experiment [2]; 0.125 µg/mL (≈ 0.168 µM) in experiment [3]; 256 µg/mL (≈ 343 µM) in experiment [4]; 0.125 µg/mL (≈ 0.168 µM) in experiment [5].

For the molecule `CC[C@H]1OC(=O)[C@H](C)C(=O)[C@H](C)[C@@H](O[C@H]2O[C@H](C)C[C@H](N(C)C)[C@H]2O)[C@](C)(OC)C[C@@H](C)/C(=N\OC/C=C/c2ccc3ncccc3c2)[C@H](C)[C@@H]2OC(=O)O[C@]12C`, the MIC is 32 µg/mL (≈ 40.2 µM) in experiment [1]; 1 µg/mL (≈ 1.26 µM) in experiment [6]; no more than 0.016 µg/mL in experiment [2]; 0.032 µg/mL (≈ 0.0402 µM) in experiment [3]; 64 µg/mL (≈ 80.4 µM) in experiment [4]; 0.25 µg/mL (≈ 0.314 µM) in experiment [7]. For the same molecule, in experiment [5], the MIC is no more than 0.016 µg/mL.

Take `CC[C@H]1OC(=O)[C@H](C)C(=O)[C@H](C)[C@@H](O[C@H]2O[C@H](C)C[C@H](N(C)C)[C@H]2O)[C@](C)(OC)C[C@@H](C)/C(=N\OC/C=C/c2ccc(-n3ccnc3)cc2)[C@H](C)[C@@H]2OC(=O)O[C@]12C`: the MIC in experiment [1] was 32 µg/mL (≈ 39.5 µM); in experiment [6] it was 1 µg/mL (≈ 1.23 µM); in experiment [2] it was no more than 0.016 µg/mL; in experiment [3] it was 0.125 µg/mL (≈ 0.154 µM); in experiment [4], 64 µg/mL (≈ 78.9 µM); in experiment [7], 0.125 µg/mL (≈ 0.154 µM). Besides, it took 0.125 µg/mL (≈ 0.154 µM) to inhibit growth in experiment [5] (MIC).

With `CC[C@H]1OC(=O)[C@H](C)C(=O)[C@H](C)[C@@H](O[C@H]2O[C@H](C)C[C@H](N(C)C)[C@H]2O)[C@](C)(OC)C[C@@H](C)/C(=N\OC/C=C/c2cncc3ccccc23)[C@H](C)[C@@H]2OC(=O)O[C@]12C`, the MIC in experiment [1] amounted to 64 µg/mL (≈ 80.4 µM); in experiment [2] it was 0.032 µg/mL (≈ 0.0402 µM); in experiment [3], 0.064 µg/mL (≈ 0.0804 µM); in experiment [4] it was 256 µg/mL (≈ 322 µM); in experiment [5], 0.5 µg/mL (≈ 0.628 µM).

Consider `C=CCOC1[C@@H](C)C(=O)O[C@H](CC)[C@@](C)(O)[C@H](O)[C@@H](C)/C(=N/OC/C=C/c2cncnc2)[C@H](C)C[C@@](C)(OC)[C@H](O[C@H]2O[C@H](C)C[C@H](N(C)C)[C@H]2O)[C@H]1C` (some centres not stated), for which the MIC in experiment [1] was 128 µg/mL (≈ 168 µM); in experiment [6], 128 µg/mL (≈ 168 µM); in experiment [2], 8 µg/mL (≈ 10.5 µM); in experiment [3], 32 µg/mL (≈ 41.9 µM); in experiment [4], greater than 256 µg/mL; in experiment [7], 16 µg/mL (≈ 21 µM). The molecule further came in with an MIC in experiment [5] of 32 µg/mL (≈ 41.9 µM).

As for `CC[C@H]1OC(=O)[C@H](C)C(=O)[C@H](C)[C@@H](O[C@H]2O[C@H](C)C[C@H](N(C)C)[C@H]2O)[C@](C)(OC)C[C@@H](C)/C(=N\OC/C=C/c2cncnc2)[C@H](C)[C@@H]2OC(=O)O[C@]12C`, the MIC was 128 µg/mL (≈ 171 µM) in experiment [1]; 1 µg/mL (≈ 1.34 µM) in experiment [6]; no more than 0.016 µg/mL in experiment [2]; 0.032 µg/mL (≈ 0.0428 µM) in experiment [3]; 256 µg/mL (≈ 343 µM) in experiment [4]; 0.25 µg/mL (≈ 0.335 µM) in experiment [7]. In experiment [5], the minimal inhibitory concentration (MIC) is 0.032 µg/mL (≈ 0.0428 µM).
